Assay results reported in PubChem BioAssay (NCI).
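How tested: cells in 96-well plates exposed to compound for 48 hours at five concentrations. At the GI50, growth is halved. TGI is the concentration that stops growth completely.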

Tests used:
Test in all cases: NCI-60 cell line screen, 48 h
OVCAR-5 ovarian = system: OVCAR-5 ovarian
HT29 colon = system: HT29 colon
T-47D breast = system: T-47D breast
HL-60(TB) leukemia = system: HL-60(TB) leukemia
OVCAR-8 ovarian = system: OVCAR-8 ovarian
RXF 393 renal = system: RXF 393 renal
DU-145 prostate = system: DU-145 prostate
MOLT-4 leukemia = system: MOLT-4 leukemia
LOX IMVI melanoma = system: LOX IMVI melanoma
SK-MEL-2 melanoma = system: SK-MEL-2 melanoma
M14 melanoma = system: M14 melanoma
OVCAR-4 ovarian = system: OVCAR-4 ovarian
SNB-19 CNS = system: SNB-19 CNS
SF-539 CNS = system: SF-539 CNS
RPMI-8226 leukemia = system: RPMI-8226 leukemia
MDA-MB-231 breast = system: MDA-MB-231 breast
HCT-15 colon = system: HCT-15 colon
OVCAR-3 ovarian = system: OVCAR-3 ovarian
UACC-62 melanoma = system: UACC-62 melanoma
NCI-H23 lung = system: NCI-H23 lung
HOP-92 NSCLC = system: HOP-92 NSCLC
SNB-75 CNS = system: SNB-75 CNS
A498 renal = system: A498 renal
UACC-257 melanoma = system: UACC-257 melanoma
HS 578T breast = system: HS 578T breast
NCI-H226 lung = system: NCI-H226 lung
MALME-3M melanoma = system: MALME-3M melanoma
HCT-116 colon = system: HCT-116 colon
PC-3 prostate = system: PC-3 prostate
IGROV1 ovarian = system: IGROV1 ovarian
SK-MEL-5 melanoma = system: SK-MEL-5 melanoma
CCRF-CEM leukemia = system: CCRF-CEM leukemia
SR leukemia = system: SR leukemia
SW-620 colon = system: SW-620 colon
SK-OV-3 ovarian = system: SK-OV-3 ovarian
NCI/ADR-RES ovarian = system: NCI/ADR-RES ovarian
SK-MEL-28 melanoma = system: SK-MEL-28 melanoma
TK-10 renal = system: TK-10 renal
CAKI-1 renal = system: CAKI-1 renal
786-0 renal = system: 786-0 renal
ACHN renal = system: ACHN renal
SN12C renal = system: SN12C renal
HCC-2998 colon = system: HCC-2998 colon
SF-295 CNS = system: SF-295 CNS
COLO 205 colon = system: COLO 205 colon
BT-549 breast = system: BT-549 breast
EKVX NSCLC = system: EKVX NSCLC
NCI-H522 lung = system: NCI-H522 lung
KM12 colon = system: KM12 colon
K-562 leukemia = system: K-562 leukemia
A549 NSCLC = system: A549 NSCLC
MDA-MB-435 = system: MDA-MB-435
HOP-62 NSCLC = system: HOP-62 NSCLC
SF-268 CNS = system: SF-268 CNS
MCF7 breast = system: MCF7 breast
U251 CNS = system: U251 CNS
UO-31 renal = system: UO-31 renal
NCI-H460 lung = system: NCI-H460 lung

## CN1CCN(Cc2ccc(NC(=O)c3cncc(C#Cc4cnc5ccc(OCC6COC6)nn45)c3)cc2C(F)(F)F)CC1
OVCAR-5 ovarian
  GI50: 222 nM
  TGI: 812 nM
HT29 colon
  GI50: 166 nM
  TGI: 687 nM
T-47D breast
  GI50: 355 nM
  TGI: 1430 nM
HL-60(TB) leukemia
  GI50: 121 nM
  TGI: 412 nM
OVCAR-8 ovarian
  GI50: 163 nM
  TGI: 600 nM
RXF 393 renal
  GI50: 159 nM
  TGI: 457 nM
DU-145 prostate
  GI50: 177 nM
  TGI: 573 nM
MOLT-4 leukemia
  GI50: 129 nM
  TGI: 941 nM
LOX IMVI melanoma
  GI50: 165 nM
  TGI: 620 nM
SK-MEL-2 melanoma
  GI50: 103 nM
  TGI: 237 nM
M14 melanoma
  GI50: 88.9 nM
  TGI: 205 nM
OVCAR-4 ovarian
  GI50: 193 nM
  TGI: 979 nM
SNB-19 CNS
  GI50: 363 nM
  TGI: 2050 nM
SF-539 CNS
  GI50: 165 nM
  TGI: 795 nM
RPMI-8226 leukemia
  GI50: 269 nM
  TGI: 1260 nM
MDA-MB-231 breast
  GI50: 95 nM
  TGI: 445 nM
HCT-15 colon
  GI50: 153 nM
  TGI: 568 nM
OVCAR-3 ovarian
  GI50: 214 nM
  TGI: 705 nM
UACC-62 melanoma
  GI50: 155 nM
  TGI: 717 nM
NCI-H23 lung
  GI50: 151 nM
  TGI: 693 nM
HOP-92 NSCLC
  GI50: 28 nM
  TGI: 166 nM
SNB-75 CNS
  GI50: 182 nM
  TGI: 541 nM
A498 renal
  GI50: 483 nM
  TGI: 1110 nM
UACC-257 melanoma
  GI50: 384 nM
  TGI: 1070 nM
HS 578T breast
  GI50: 235 nM
  TGI: 1320 nM
NCI-H226 lung
  GI50: 50.4 nM
  TGI: 709 nM
MALME-3M melanoma
  GI50: 89.5 nM
  TGI: 314 nM
HCT-116 colon
  GI50: 91.1 nM
  TGI: 306 nM
PC-3 prostate
  GI50: 244 nM
  TGI: 1450 nM
IGROV1 ovarian
  GI50: 142 nM
  TGI: 583 nM
SK-MEL-5 melanoma
  GI50: 552 nM
  TGI: 1170 nM
CCRF-CEM leukemia
  GI50: 184 nM
  TGI: 3880 nM
SR leukemia
  GI50: 147 nM
  TGI: 517 nM
SW-620 colon
  GI50: 160 nM
  TGI: 599 nM
SK-OV-3 ovarian
  GI50: 244 nM
  TGI: 927 nM
NCI/ADR-RES ovarian
  GI50: 195 nM
  TGI: 1260 nM
SK-MEL-28 melanoma
  GI50: 218 nM
  TGI: 809 nM
TK-10 renal
  GI50: 187 nM
  TGI: 570 nM
CAKI-1 renal
  GI50: 117 nM
  TGI: 432 nM
786-0 renal
  GI50: 272 nM
  TGI: 847 nM
ACHN renal
  GI50: 167 nM
  TGI: 605 nM
SN12C renal
  GI50: 141 nM
  TGI: 609 nM
HCC-2998 colon
  GI50: 310 nM
  TGI: 1110 nM
SF-295 CNS
  GI50: 443 nM
  TGI: 1120 nM
COLO 205 colon
  GI50: 103 nM
  TGI: 222 nM
BT-549 breast
  GI50: 538 nM
  TGI: 1180 nM
EKVX NSCLC
  GI50: 273 nM
  TGI: 954 nM
NCI-H522 lung
  GI50: 97.7 nM
  TGI: 226 nM
KM12 colon
  GI50: 5 nM
  TGI: 451 nM
K-562 leukemia
  GI50: 5 nM
  TGI: 5120 nM
A549 NSCLC
  GI50: 174 nM
  TGI: 655 nM
MDA-MB-435
  GI50: 144 nM
  TGI: 615 nM
HOP-62 NSCLC
  GI50: 175 nM
  TGI: 589 nM
SF-268 CNS
  GI50: 189 nM
  TGI: 629 nM
MCF7 breast
  GI50: 96 nM
  TGI: 528 nM
U251 CNS
  GI50: 251 nM
  TGI: 935 nM
UO-31 renal
  GI50: 167 nM
  TGI: 558 nM
NCI-H460 lung
  GI50: 189 nM
  TGI: 676 nM
